Measurements from publication doi:10.1101/614586v1 (biorxiv, 2019).

Experiments:
human RAD54 [1] = biological target: T1, human RAD54 (Homo sapiens, UniProt Q92698); experiment: biochemical
T1 sequence (Q92698 1-747): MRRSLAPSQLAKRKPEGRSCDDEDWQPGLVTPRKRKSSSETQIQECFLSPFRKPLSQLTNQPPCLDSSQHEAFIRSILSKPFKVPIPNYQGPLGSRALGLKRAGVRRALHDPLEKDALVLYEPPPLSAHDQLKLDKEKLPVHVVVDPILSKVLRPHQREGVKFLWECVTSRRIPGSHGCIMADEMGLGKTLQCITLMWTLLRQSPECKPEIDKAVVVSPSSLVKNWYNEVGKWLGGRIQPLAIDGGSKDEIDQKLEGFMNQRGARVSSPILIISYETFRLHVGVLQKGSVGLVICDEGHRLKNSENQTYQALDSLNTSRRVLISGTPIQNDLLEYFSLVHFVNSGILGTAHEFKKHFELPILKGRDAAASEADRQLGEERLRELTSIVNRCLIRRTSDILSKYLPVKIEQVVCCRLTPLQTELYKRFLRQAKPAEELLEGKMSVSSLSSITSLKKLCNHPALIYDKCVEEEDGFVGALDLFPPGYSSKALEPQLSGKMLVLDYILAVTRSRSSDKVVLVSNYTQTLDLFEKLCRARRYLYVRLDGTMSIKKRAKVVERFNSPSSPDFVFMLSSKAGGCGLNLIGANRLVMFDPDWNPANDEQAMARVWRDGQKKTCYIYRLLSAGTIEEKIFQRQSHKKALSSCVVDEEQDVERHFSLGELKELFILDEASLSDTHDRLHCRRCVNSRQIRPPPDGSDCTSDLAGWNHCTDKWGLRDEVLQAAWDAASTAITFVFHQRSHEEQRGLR

H. sapiens HLTF = biological target: T2, H. sapiens HLTF (Homo sapiens, UniProt Q14527); experiment: malachite green phosphate ATPase assay; format: biochemical
T2 sequence (Q14527 1-1009): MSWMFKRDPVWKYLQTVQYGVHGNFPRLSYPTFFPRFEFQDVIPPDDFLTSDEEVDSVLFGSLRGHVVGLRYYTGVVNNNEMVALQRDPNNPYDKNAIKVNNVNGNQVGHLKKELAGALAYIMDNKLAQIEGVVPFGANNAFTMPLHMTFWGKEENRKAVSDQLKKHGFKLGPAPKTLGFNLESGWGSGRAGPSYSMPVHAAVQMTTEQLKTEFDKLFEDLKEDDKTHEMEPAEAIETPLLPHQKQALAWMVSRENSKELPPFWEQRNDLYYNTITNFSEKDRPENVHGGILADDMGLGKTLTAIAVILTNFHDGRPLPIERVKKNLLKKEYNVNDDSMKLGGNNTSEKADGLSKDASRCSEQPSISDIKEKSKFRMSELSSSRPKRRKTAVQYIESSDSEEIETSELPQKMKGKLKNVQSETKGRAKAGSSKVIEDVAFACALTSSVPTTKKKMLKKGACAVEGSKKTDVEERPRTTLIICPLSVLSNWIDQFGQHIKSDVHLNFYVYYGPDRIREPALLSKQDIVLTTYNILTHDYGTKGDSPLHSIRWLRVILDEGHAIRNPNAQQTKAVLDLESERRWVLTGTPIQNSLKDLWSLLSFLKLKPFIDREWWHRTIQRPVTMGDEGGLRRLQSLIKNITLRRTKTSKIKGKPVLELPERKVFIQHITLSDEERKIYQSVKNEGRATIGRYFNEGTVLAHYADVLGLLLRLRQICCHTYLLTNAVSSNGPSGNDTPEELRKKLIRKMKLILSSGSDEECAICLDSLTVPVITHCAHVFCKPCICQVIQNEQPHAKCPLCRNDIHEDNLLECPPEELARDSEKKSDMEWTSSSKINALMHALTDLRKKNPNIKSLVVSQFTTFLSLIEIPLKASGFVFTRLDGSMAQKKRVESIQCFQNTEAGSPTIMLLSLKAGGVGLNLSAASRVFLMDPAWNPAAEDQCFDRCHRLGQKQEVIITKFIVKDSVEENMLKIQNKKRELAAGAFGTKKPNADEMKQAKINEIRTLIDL

H. sapiens SMARCAL1 = biological target: T3, H. sapiens SMARCAL1 (Homo sapiens, UniProt Q9NZC9); experiment: malachite green phosphate ATPase assay; format: biochemical
T3 sequence (Q9NZC9 2-954): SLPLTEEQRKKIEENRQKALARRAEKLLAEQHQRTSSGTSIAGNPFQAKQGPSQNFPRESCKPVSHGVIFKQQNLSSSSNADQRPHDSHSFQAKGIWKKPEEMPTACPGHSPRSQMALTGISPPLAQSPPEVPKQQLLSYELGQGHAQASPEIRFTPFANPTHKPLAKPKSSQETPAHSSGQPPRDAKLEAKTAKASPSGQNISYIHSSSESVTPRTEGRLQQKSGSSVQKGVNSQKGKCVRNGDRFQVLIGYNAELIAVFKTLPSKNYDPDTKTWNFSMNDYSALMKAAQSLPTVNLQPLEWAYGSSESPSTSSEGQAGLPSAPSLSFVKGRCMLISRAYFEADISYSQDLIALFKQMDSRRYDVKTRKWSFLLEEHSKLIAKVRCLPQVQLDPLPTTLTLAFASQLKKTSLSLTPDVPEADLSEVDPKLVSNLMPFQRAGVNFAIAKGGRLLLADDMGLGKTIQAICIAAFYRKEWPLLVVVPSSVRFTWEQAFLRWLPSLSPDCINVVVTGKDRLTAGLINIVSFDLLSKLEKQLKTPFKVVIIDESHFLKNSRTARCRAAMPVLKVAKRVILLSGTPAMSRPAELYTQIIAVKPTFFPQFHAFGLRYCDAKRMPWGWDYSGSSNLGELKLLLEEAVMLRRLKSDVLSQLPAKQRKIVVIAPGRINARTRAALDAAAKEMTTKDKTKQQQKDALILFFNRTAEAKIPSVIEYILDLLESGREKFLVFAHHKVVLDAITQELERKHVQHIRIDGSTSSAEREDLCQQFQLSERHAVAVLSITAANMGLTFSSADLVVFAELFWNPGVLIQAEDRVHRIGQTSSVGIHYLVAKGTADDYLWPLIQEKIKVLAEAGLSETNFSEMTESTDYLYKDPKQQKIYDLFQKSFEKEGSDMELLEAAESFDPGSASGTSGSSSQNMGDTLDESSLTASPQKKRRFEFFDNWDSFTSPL

human RAD54 [2] = biological target: T1, human RAD54; experiment: malachite green phosphate ATPase assay; format: biochemical
H. sapiens VCP/p97 = H. sapiens VCP/p97 (Homo sapiens, UniProt P55072); experiment: malachite green phosphate ATPase assay; format: biochemical
human RAD54 [3] = biological target: T1, human RAD54; experiment: biochemical; settings: read-out: % inh.
E. coli RecA = biological target: T4, E. coli RecA (Escherichia coli, UniProt P0A7G6); experiment: malachite green phosphate ATPase assay; format: biochemical
T4 sequence (P0A7G6 2-353): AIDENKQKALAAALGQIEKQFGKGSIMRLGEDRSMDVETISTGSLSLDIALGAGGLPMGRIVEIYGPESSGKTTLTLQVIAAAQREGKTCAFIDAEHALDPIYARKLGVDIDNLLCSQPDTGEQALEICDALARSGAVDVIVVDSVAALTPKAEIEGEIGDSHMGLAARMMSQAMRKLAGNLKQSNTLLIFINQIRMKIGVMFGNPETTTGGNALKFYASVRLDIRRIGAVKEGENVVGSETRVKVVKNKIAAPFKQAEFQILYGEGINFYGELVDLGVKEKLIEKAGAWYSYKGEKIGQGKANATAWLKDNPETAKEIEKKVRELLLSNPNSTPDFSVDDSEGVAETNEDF

S. cerevisiae Rdh54/Tid1 = biological target: T5, S. cerevisiae Rdh54/Tid1 (Saccharomyces cerevisiae, UniProt P38086); experiment: malachite green phosphate ATPase assay; format: biochemical
T5 sequence (P38086 35-958 limits assumed): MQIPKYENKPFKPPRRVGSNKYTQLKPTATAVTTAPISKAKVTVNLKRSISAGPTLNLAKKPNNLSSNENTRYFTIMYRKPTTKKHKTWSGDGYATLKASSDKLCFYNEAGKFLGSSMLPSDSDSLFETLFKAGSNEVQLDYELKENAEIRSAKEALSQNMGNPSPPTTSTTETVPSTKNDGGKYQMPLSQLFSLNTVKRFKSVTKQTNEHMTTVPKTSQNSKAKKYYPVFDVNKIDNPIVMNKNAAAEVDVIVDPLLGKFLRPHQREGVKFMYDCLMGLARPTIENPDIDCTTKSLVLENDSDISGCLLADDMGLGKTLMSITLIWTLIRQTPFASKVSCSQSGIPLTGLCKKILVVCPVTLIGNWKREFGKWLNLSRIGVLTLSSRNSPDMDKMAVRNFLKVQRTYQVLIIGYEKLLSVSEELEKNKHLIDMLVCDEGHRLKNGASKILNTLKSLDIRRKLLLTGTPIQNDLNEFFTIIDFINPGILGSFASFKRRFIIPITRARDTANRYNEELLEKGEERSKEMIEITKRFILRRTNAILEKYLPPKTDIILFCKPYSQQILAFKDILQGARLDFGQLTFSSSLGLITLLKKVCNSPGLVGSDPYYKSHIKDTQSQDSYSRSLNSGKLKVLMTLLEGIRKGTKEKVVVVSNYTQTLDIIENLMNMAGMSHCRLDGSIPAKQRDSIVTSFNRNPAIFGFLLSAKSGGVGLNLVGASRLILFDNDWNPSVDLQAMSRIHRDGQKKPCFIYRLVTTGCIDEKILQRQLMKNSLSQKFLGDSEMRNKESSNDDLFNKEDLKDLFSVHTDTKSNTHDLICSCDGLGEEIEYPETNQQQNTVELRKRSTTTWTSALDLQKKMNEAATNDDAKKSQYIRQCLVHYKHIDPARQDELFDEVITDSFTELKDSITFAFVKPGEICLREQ

S. cerevisiae Rad54 = biological target: T6, S. cerevisiae Rad54 (Saccharomyces cerevisiae, UniProt P32863); experiment: malachite green phosphate ATPase assay; format: biochemical
T6 sequence (P32863 1-898): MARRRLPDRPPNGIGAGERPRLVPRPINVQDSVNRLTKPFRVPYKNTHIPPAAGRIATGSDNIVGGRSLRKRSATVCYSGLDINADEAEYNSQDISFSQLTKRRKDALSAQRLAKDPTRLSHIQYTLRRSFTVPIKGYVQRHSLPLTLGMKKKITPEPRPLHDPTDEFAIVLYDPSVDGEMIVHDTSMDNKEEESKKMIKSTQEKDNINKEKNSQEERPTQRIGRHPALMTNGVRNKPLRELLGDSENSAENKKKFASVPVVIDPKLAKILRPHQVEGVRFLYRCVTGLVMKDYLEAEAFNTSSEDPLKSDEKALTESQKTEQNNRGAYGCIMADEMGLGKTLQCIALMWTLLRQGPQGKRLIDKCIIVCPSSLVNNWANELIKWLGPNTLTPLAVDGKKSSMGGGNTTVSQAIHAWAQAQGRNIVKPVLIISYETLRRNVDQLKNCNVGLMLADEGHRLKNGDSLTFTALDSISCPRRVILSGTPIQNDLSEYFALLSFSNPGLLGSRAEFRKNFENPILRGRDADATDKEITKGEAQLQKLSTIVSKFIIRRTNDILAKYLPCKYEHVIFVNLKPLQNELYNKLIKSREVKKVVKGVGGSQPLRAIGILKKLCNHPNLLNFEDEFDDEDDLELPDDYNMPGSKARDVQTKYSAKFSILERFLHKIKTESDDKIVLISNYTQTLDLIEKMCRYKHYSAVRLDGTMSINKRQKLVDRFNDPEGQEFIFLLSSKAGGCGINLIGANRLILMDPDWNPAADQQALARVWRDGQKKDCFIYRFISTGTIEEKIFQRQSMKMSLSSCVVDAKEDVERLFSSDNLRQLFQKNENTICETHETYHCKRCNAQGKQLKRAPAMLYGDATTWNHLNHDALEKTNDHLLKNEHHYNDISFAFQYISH

human RAD54 [4] = biological target: T1, human RAD54; experiment: biochemical; remark: listed apart in the source

Chain of H. sapiens VCP/p97 (P55072 2-806): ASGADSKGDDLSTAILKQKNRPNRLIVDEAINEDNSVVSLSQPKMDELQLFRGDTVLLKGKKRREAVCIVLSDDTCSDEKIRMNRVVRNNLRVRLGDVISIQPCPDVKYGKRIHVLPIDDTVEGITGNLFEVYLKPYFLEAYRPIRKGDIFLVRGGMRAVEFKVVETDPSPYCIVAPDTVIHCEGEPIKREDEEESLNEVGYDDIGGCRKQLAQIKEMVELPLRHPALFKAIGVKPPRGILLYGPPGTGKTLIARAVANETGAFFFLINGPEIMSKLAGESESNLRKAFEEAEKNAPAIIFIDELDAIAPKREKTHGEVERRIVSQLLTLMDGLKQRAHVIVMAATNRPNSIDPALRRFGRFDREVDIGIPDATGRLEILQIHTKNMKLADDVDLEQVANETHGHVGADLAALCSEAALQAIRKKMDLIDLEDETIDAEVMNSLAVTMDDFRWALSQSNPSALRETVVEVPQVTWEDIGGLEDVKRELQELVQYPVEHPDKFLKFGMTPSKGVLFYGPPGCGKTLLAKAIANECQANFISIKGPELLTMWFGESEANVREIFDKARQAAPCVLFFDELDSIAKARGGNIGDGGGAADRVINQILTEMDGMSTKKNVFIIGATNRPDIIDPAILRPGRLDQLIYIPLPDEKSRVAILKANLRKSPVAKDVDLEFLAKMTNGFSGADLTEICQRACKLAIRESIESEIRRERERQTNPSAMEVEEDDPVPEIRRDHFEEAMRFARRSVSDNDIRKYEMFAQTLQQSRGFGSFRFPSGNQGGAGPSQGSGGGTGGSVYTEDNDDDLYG

SMILES | IC50 (human RAD54 [2]) [µM] | inhibition at 10 µM (human RAD54 [3]) [%] | also measured
Cc1ccc(C)n1CCN1CCNCC1 [54h^o-1] | – | – | IC50 (human RAD54 [1]): > 60 µM
CN(C)CCCNCC(O)Cn1c2ccc(Cl)cc2c2cc(Cl)ccc21 (stereo not drawn) [54i-1] | 5 ± 1.05 | 68 | IC50 (H. sapiens HLTF): 377 ± 195 µM; IC50 (H. sapiens SMARCAL1): 5.7 ± 0.6 µM; IC50 (H. sapiens VCP/p97): > 500 µM; IC50 (E. coli RecA): 790 ± 50 nM; IC50 (S. cerevisiae Rdh54/Tid1): 43.2 ± 2.9 µM; IC50 (S. cerevisiae Rad54): 3.8 ± 1.8 µM
CC1(C)Cc2c(ccc3ccccc23)C(CCN2CCCCC2)=N1 [54i-2] | 16 ± 3 | 18 | –
Cc1nc2c(=O)n(C)c(=O)nc-2n(C)n1 [54i^P-1a] | – | 44 | –
CCCc1nc2c(=O)n(C)c(=O)nc-2n(C)n1 [54i^P-1b] | – | 61 | –
CCn1nc(-c2ccccc2C)nc2c(=O)n(C)c(=O)nc1-2 [54i^P-1c] | – | 70 | –
CCn1nc(-c2ccc(C)cc2)nc2c(=O)n(C)c(=O)nc1-2 [54i^P-1d] | – | 49 | –
CCn1nc(-c2ccc(C(F)F)cc2)nc2c(=O)n(C)c(=O)nc1-2 [54i^P-1e] | – | 79 | –
Cc1ccc(C)n1-c1ccc(C(=O)O)c(O)c1 [54i^P-2a] | – | 50 | –

Now from value to compound, other results behind:

IC50 (human RAD54 [2]) [µM] | inhibition at 10 µM (human RAD54 [3]) [%] | SMILES | also measured
– | 70 | Cc1ccc(C)n1-c1ccc(SCC(=O)O)cc1 [54i^P-2b] | –
– | 27 | CS(=O)(=O)C1=NSC2=NC(=O)C(=Cc3ccc(SCc4ccc(Cl)cc4)o3)C(=N)N21 [54i^P-3] | –
– | 36 | NC=O [54i^P-4] | –
> 130 | – | CC1(C)c2ccccc2N(CCc2nnn[nH]2)c2ccccc21 [tricyc-1] | IC50 (human RAD54 [4]): 129 ± 19.7 µM
3.07 ± 0.7 | – | CC1(C)c2cc(Cl)ccc2N(CCc2nnn[nH]2)c2ccc(Cl)cc21 [tricyc-2] | –
7.65 ± 1.06 | – | CC1(C)c2cc(Br)ccc2N(CCc2nnn[nH]2)c2ccc(Br)cc21 [tricyc-3] | –
